Laboratory results from patent US20020019543A1, “Thiol derivative, metallo-beta-lactamase inhibitors” (priority 2000, published 2002).

What was measured:
[1] = test system: E. coli BL21(DE3)/pET30a-IMP-1; assay type: cell-based; details: thioester conc giving 4-fold increase in sensitivity to the Merck carbapenem (0.25x MIC), no visible growth after 20 hours at 35° C.
From the text: (§1) A laboratory strain of E.coli engineered to express IMP-1 was used to evaluate the ability of thiol derivatives to reverse metallo-β-lactamase-mediated carbapenem resistance in bacteria. Native IMP-1, which included the N-terminal periplasmic signal sequence, was PCR amplified from […] isolated from a carbapenem resistant P. aeruginosa clinical isolate, CL56673, and cloned into the pET30a vector.

[2] = test system: E. coli BL21(DE3); test: Carbapenem sensitivity (MIC) of E. coli BL21(DE3) with and without IMP-1 expression; assay type: cell-based; details: for fold reduced sensitivity caused by basal (uninduced) IMP-1 expression: pET30a-IMP-1 in E. coli BL21(DE3)
Procedure: as §1, with “vector. […] Various concentrations of IMP-1 inhibitor were added to the bacterial growth medium and their capacity to effect a four-fold or greater increase in sensitivity to the carbapenem was monitored.” for “vector.”

Compound	Effective conc for 4-fold reduction of MIC in E. coli [1]	fold reduced sensitivity caused by basal (uninduced) IMP-1 expression [2] [fold]	also measured
CC(=O)N[C@H](C)C(=O)S[C@H](Cc1ccc(-c2ccccc2)cc1)C(=O)O [Example 13]	6.3 µM	–	–
CC(=O)SC(Cc1ccc2oc3ccccc3c2c1)C(=O)O (centres unmarked) [Example 78]	≦0.1 μM	–	–
O=C(SC(Cc1ccc2oc3ccccc3c2c1)C(=O)O)c1ccccc1 (centres unmarked) [Example 79]	0.2 µM	–	–
C[C@@H](O)[C@H]1C(=O)N2C(C(=O)O)=C(SCCN=CN)C[C@H]12 [impenem]	–	4	–
C[C@@H](O)[C@H]1C(=O)N2C(C(=O)O)=C(S[C@@H]3CN[C@H](C(=O)N(C)C)C3)[C@H](C)[C@H]12 [meropenem]	–	64	–
(1S,5R,6S)-1-methyl-2-{7-[4-(aminocarbonylmethyl)-1,4-diazoniabicyclo(2.2.2)octan-1-yl]methyl-fluoren-9-on-3-yl}-6-(1R-hydroxyethyl)-carbapen-2-em-3-carboxylate chloride	–	500	minimum inhibitory concentration (MIC), without IMP-1 expression ([2]; E. coli BL21(DE3), before expression of IMP-1): 0.06 to 0.12 µg/mL; minimum inhibitory concentration (MIC), with IMP-1 expression ([2]; E. coli BL21(DE3)/pET30a-IMP-1, basal IMP-1 expression): 16 to 32 µg/mL
